According to article PMC6271559, “Synthesis and Evaluation of 2,4-Disubstituted Quinazoline Derivatives with Potent Anti-Angiogenesis Activities” (Molecules, 2014):
Read-outs that look alike come from different tables or passages of the source.

Legend:
[1] = system: PC-3 (human prostatic carcinoma) cells; test: MTT cytotoxicity assay, PC-3; format: cell-based; conditions: Prostatic carcinoma cell, 48 h, mean of three independent assays
From the text: (§1) In the early 80s, scientists proposed anti-angiogenesis as a potential target in cancer therapy. Much research in the past 30 years has targeted tumor angiogenesis as a means of inhibiting the process of tumor-caused blood vessel formation. Endothelial cells, which come from the inner lining of blood vessels, makes up a fundamental part of new blood vessels as well as pre-existing ones. A complete angiogenesis process includes the proliferation, migration, and differentiation of endothelial cells, so a great deal of angiogenesis inhibitors discovered to date target endothelial cells. We thus employed a cell proliferation assay to evaluate the cytotoxicity of quinazoline derivatives against both normal (HUVEC) and tumor cell lines (CNE-2, PC-3, and SMMC-7721 cell lines) so we can screen some molecules that have cytotoxicity against tumor cells but low cytotoxicity against HUVECs. Meanwhile, an appropriate concentration range of these compounds could be determined to further study their inhibitive effects against the proliferation, migration, and differentiation of HUVECs. The cytotoxic activities of quinazoline derivatives against human tumor cell lines CNE-2 (human nasopharyngeal cancer), PC-3 (human prostatic carcinoma), SMMC-7721 (human liver cancer) and Human Umbilical Vein Endothelial Cells (HUVECs) were determined by using the MTT cytotoxicity assay.
(§2) HUVEC, CNE-2, PC-3, and 7721 cell lines were seeded on 96-well plates at a concentration of 5,000 cells per well and exposed to various concentrations of quinazoline derivatives. After 48 h of treatment at 37 °C in a humidified atmosphere of 5% CO2, 5 mg/mL MTT solution (10 μL) was added to each well and further incubated for 4 h. Each well was then added dimethyl sulfoxide (DMSO, 100 μL), and the optical density (OD) was recorded at 490 nm. All measurements were done in triplicate, and the IC50 values were derived from the mean OD values of the triplicate tests versus drug concentration curves.

[2] = system: SMMC-7721 (human liver cancer) cells; test: MTT cytotoxicity assay, SMMC-7721; format: cell-based; conditions: 48 h, mean of three independent assays
From the text: as §1, §2

[3] = MTT cytotoxicity assay, HUVEC; format: cell-based; conditions: human, HUVEC (human umbilical vein endothelial cells), mean of three independent assays
From the text: as §1, §2

[4] = system: HUVEC adhesion to collagen; test: HUVEC adhesion assay on type I collagen; format: cell-based, human; conditions: adhesion of HUVEC on collagen, 37 °C; for inhibition at 15 µM / inhibition at 30 µM: Homo sapiens, HUVEC
From the text: A perfect angiogenesis inhibitor must be show lower toxicity toward HUVECs, while showing high inhibitive capability towards the proliferation, migration, and differentiation of HUVECs. To assess the inhibitory effects of 2,4-disubstituted quinazoline derivatives, three assays were used: HUVEC adhesion assay, HUVEC migration assay and CAM assay. Firstly, to test the inhibitory effects of quinazoline derivatives on the attachment of endothelial cells to type I collagen, cell adhesion assays were carried out.
Cell adhesion assay was carried out by a reported method with slight modification. Wells of a 96-well plate were coated at room temperature overnight with rat trail tendon collagen type I (2 μg) in PBS in a final volume of 100 μL. The wells were washed three times with PBS ([…]) and then blocked with 0.2% bovine serum albumin (BSA) in PBS ([…]) for 2 h at 37 °C in a cell culture incubator. The wells were then washed three times with PBS ([…]). HUEVCs were detached from the dish, resuspended in DMEM, and added (50 μL, 10^4 cells/mL) to each well followed by the related compounds (50 μL) at various concentrations. The plates were incubated for 1 h or 3 h at 37 °C and then washed three times with PBS (100 μL). The attached cells were fixed and stained with 0.2 % crystal violet in 20% methanol for 10 min, then washed three times with PBS ([…]). The cells were solubilized by 2% SDS and the OD was measured at 570 nm. Attachment was determined by both 1 and 3 h as described above. Each compound was tested in triplicate and each experiment was repeated three times.

[5] = system: CNE-2 (human nasopharyngeal cancer) cells; test: MTT cytotoxicity assay, CNE-2; format: cell-based; conditions: 48 h, mean of three independent assays
From the text: as §1, §2

[6] = 1 h, 1 h, 15 μM, read-out: 1 h Inhibition Rate % Dose 15 μM
[7] = 1 h, 1 h, 30 μM, read-out: 1 h Inhibition Rate % Dose 30 μM
[8] = 3 h, 3 h, 15 μM, read-out: 3 h Inhibition Rate % Dose 15 μM
[9] = 3 h, 3 h, 30 μM, read-out: 3 h Inhibition Rate % Dose 30 μM

Structure (SMILES)	IC50 [1] [µM]	melting point [°C]	IC50 [2] [µM]	IC50 at 48 h [3] [µM]	inhibition at 15 µM [4, 6] [%]	inhibition at 30 µM [4, 7] [%]	inhibition at 15 µM [4, 8] [%]	inhibition at 30 µM [4, 9] [%]	IC50 [5] [µM]	3 h Inhibition Rate % Dose 15 μM ([4]; 3 h, 15 μM) [%]	3 h Inhibition Rate % Dose 30 μM ([4]; 3 h, 30 μM) [%]
CN(C)CCCNc1nc(-c2ccccc2NC(=O)CN2CCCCC2)nc2ccccc12 [Compound 10a, N-(2-(4-(3-(Dimethylamino)propylamino)quinazolin-2-yl)phenyl)-2-(piperidin-1-yl)acetamide]	16.8 ± 0.1	180 to 182	18.1 ± 0.2	45.7 ± 0.2	26.7 ± 0.1	31.6 ± 0.3	29.2 ± 0.2	37.6 ± 0.1	13.6 ± 0.2	–	–
CN(C)CCCNc1nc(-c2ccccc2NC(=O)CN2CCCC2)nc2ccccc12 [Compound 10b, N-(2-(4-(3-(dimethylamino)propylamino)quinazolin-2-yl)phenyl)-2-(pyrrolidin-1-yl)acetamide]	16.7 ± 0.2	174 to 175	17.9 ± 0.4	39.3 ± 0.3	28.3 ± 0.1	33 ± 0.2	27.8 ± 0.2	34.8 ± 0.2	14.9 ± 0.2	–	–
CCN(CC)CC(=O)Nc1ccccc1-c1nc(NCCCN(C)C)c2ccccc2n1 [Compound 10c, N-(2-(4-(3-(Dimethylamino)propylamino)quinazolin-2-yl)phenyl)-2-(diethylamino)acetamide]	17.6 ± 0.1	–	19.4 ± 0.1	56.2 ± 0.2	18.9 ± 0.3	27.8 ± 0.2	16.4 ± 0.4	29.5 ± 0.1	17.1 ± 0.4	–	–
CN(C)CCCNc1nc(-c2ccccc2NC(=O)CN2CCN(C)CC2)nc2ccccc12 [Compound 10d, N-(2-(4-(3-(Dimethylamino)propylamino)quinazolin-2-yl)phenyl)-2-(4-methylpiperazin-1-yl)acetamide]	11.3 ± 0.5	174 to 175	10.4 ± 0.1	38.7 ± 0.1	34.8 ± 0.2	44.6 ± 0.4	–	63.4	10.5 ± 0.3	32.5 ± 0.4	47.2 ± 0.1
CN(C)CCCNc1nc(-c2ccccc2NC(=O)CN2CCOCC2)nc2ccccc12 [Compound 10e, N-(2-(4-(3-(Dimethylamino)propylamino)quinazolin-2-yl)phenyl)-2-morpholinoacetamide]	20.5 ± 0.3	179 to 181	22.6 ± 0.2	79.8 ± 0.1	–	14.3 ± 0.1	7.9 ± 0.3	17.6 ± 0.3	19.7 ± 0.2	–	–
CN(C)CCCNc1nc(-c2ccccc2NC(=O)CCN2CCCCC2)nc2ccccc12 [Compound 11a, N-(2-(4-(3-(Dimethylamino)propylamino)quinazolin-2-yl)phenyl)-3-(piperidin-1-yl)propanamide]	18.1 ± 0.2	178 to 179	19.9 ± 0.4	57.4 ± 0.5	37.4 ± 0.3	49.6 ± 0.5	38.2 ± 0.1	59.3 ± 0.1	14.2 ± 0.1	–	–
CN(C)CCCNc1nc(-c2ccccc2NC(=O)CCN2CCCC2)nc2ccccc12 [Compound 11b, N-(2-(4-(3-(Dimethylamino)propylamino)quinazolin-2-yl)phenyl)-3-(pyrrolidin-1-yl)propanamide]	17.4 ± 0.1	163 to 165	15.1 ± 0.2	46.3 ± 0.3	35.4 ± 0.3	54.3 ± 0.3	35.2 ± 0.3	51.7 ± 0.2	14.3 ± 0.1	–	–
CCN(CC)CCC(=O)Nc1ccccc1-c1nc(NCCCN(C)C)c2ccccc2n1 [Compound 11c, N-(2-(4-(3-(Dimethylamino)propylamino)quinazolin-2-yl)phenyl)-3-(diethylamino)propanamide]	18.7 ± 0.3	158 to 160	13.8 ± 0.1	66.8 ± 0.3	29.9 ± 0.2	38.7 ± 0.2	29.4 ± 0.2	36.3 ± 0.4	16.8 ± 0.4	–	–
CN(C)CCCNc1nc(-c2ccccc2NC(=O)CCN2CCOCC2)nc2ccccc12 [Compound 11e, N-(2-(4-(3-(Dimethylamino)propylamino)quinazolin-2-yl)phenyl)-3-morpholinopropanamide]	19.6 ± 0.2	165 to 167	20.9 ± 0.3	84.9 ± 0.3	27.4 ± 0.3	32.3 ± 0.2	25.6 ± 0.3	36.4 ± 0.3	20.1 ± 0.2	–	–
CN(C)CCCNc1nc(-c2ccccc2NC(=O)CCCN2CCCCC2)nc2ccccc12 [Compound 12a, N-(2-(4-(3-(Dimethylamino)propylamino)quinazolin-2-yl)phenyl)-4-(piperidin-1-yl)butanamide]	17.7 ± 0.2	159 to 160	16.5 ± 0.1	41.7 ± 0.3	33.6 ± 0.2	57.9 ± 0.3	40.6 ± 0.3	61.2 ± 0.3	17.3 ± 0.3	–	–
CN(C)CCCNc1nc(-c2ccccc2NC(=O)CCCN2CCCC2)nc2ccccc12 [Compound 12b]	18.9 ± 0.4	–	15.3 ± 0.2	39.4 ± 0.1	29.8 ± 0.1	49.3 ± 0.1	38.4 ± 0.2	60.1 ± 0.2	16.4 ± 0.3	–	–
